The values that follow come from BindingDB's records for doi:10.1021/jm00121a001 (University of Utah, 1989).

pKi: −log10 of the molar value.

The nature of this assay: Inhibition of compound against Guanine-7-methyl transferase.

As a reminder, the pKi is the negative decadic logarithm of the Ki, by convention in mol/L. Take `Nc1nc(O)c2cc(CSC[C@H]3O[C@@H](n4cnc5c(N)ncnc54)[C@H](O)[C@@H]3O)[nH]c2n1`: the pKi was 4.03.
